Data reported in patent US20250281419A1, “LIPID AMINES” (ModernaTX, Inc., priority 2021, published 2025).

System: HeLa cells
Assay: CFTR protein expression assay in HeLa cells (LNPs of Example 2, immunofluorescence)
Format: cell-based, Human
Conditions: compared to buffer (PBS) control, 5 h transfection, 24 h incubation, N=4 wells
Protocol: Lipid nanoparticles were prepared using ethanol drop nanoprecipitation followed by solvent exchange into suitable aqueous buffer using dialysis. An exemplary lipid nanoparticle composition can be prepared by a process where lipids are dissolved in ethanol at a concentration of 12.5 mM and molar ratios of 33:15:11:39.5:1.5 (e.g., ionizable lipid:SA46:phospholipid:cholesterol:PL1). Lipid to mRNA is maintained at a N/P ratio of 4.9. Then mRNA is diluted with 25 mM sodium acetate (pH 5.0) and combined with the lipid mixture at a volume ratio of 3:1 (aqueous: ethanol). Resulting formulations are dialyzed against 20 mM tris/8% sucrose/70 mM sodium chloride (pH 7.4) at a volume of 300 times that of the primary product using Slide-A-Lyzer dialysis cassettes (Thermo Scientific, Rockford, IL, USA) with a molecular cutoff of 10 KDa for at least 18 h. The first dialysis is carried out at room temperature in a digital orbital shaker (VWR, Radnor, PA, USA) at 85 rpm for 3 h and then dialyzed overnight at 4° C. Formulations are concentrated using Amicon ultra-centrifugal filters (EMD Millipore, Billerica, MA, USA), passed through a 0.22-μm filter and stored at 4° C. until use. Lipid nanoparticle solutions are typically adjusted to specific mRNA concentrations between 0.1 and 1 mg/mL. LNPs were prepared according to Example 2. To evaluate LNP cellular uptake and protein expression in vitro, HeLa cells from ATCC.org (ATCC CCL-2) are used. The cells are cultured in complete Minimum Essential Medium (MEM) and are plated in 96 well Cell Carrier Ultra plate with PDL coated surface (PerkinElmer) prior to running an experiment. Buffer control (PBS) and LNPs encapsulating cystic fibrosis transmembrane conductance regulator (CFTR) mRNA were dosed with MEM media in the absence of serum (N=4 replicate wells). LNP transfected cells were incubated for 5 h, followed by media removal and supplementation with complete MEM media. Cells were further incubated in complete MEM media overnight (24 h). Following 24 hr incubation, the cells were fixed with PFA and processed for immunofluorescence (IF) using an anti-CFTR rabbit monoclonal antibody. Briefly, the cells were permeabilized with 0.5% TX-100 for 10 min, blocked with 3% bovine serum albumin (BSA)+PBST for 1 hr at room temperature, and incubated with primary anti-CFTR monoclonal antibody overnight at 4° C. Following primary antibody incubation, the cells were incubated with Alexa 488 conjugated secondary antibody for 30 min, and stained with DAPI and HCS CellMask Blue stain. Between different incubation steps the cells were either washed with PBS or PBST. Cells were imaged using Opera Phoenix spinning disk confocal microscope (PerkinElmer), and CFTR protein expression was detected using the 488 nm channel. The image analysis was performed in Harmony 4.9, with main analysis output being CFTR intensity per cell. The results shown in Table 3a show fold-change in CFTR signal intensity per cell compared to buffer (PBS) control (nanoparticle composition: IL1:Lipid Amine:DSPC:Chol:PL1). The results shown in Table 3b show fold-change in CFTR signal intensity per cell compared to buffer (PBS) control (nanoparticle composition: IL1:Lipid Amine:DPPC:Chol:PL1).

[1] = LNP IL1:Lipid Amine:DPPC:Chol:PL1 with CFTR mRNA
[2] = LNP IL1:Lipid Amine:DSPC:Chol:PL1 with CFTR mRNA

SMILES	Average fold-change in CFTR signal intensity per cell ± standard deviation [1] [fold-change]	Average fold-change in CFTR signal intensity per cell ± standard deviation [2] [fold-change]
CC[C@H](CC[C@@H](C)[C@H]1CC[C@H]2[C@@H]3CC=C4C[C@@H](OC(=O)NCCN(CCO)CCO)CC[C@]4(C)[C@H]3CC[C@]12C)C(C)C [SA48, (3S,8S,9S,10R,13R,14S,17R)-17-((2R,5R)-5-Ethyl-6-methylheptan-2-yl)-10,13-dimethyl-2,3,4,7,8,9,10,11,12,13,14,15,16,17-tetradecahydro-1H-cyclopenta[a]phenanthren-3-yl (2-(bis(2-hydroxyethyl)amino)ethyl)carbamate]	5.3 ± 1.0	4.4 ± 0.3
CC[C@H](CC[C@@H](C)[C@H]1CC[C@H]2[C@@H]3CC=C4C[C@@H](OC(=O)NCCCN(C)C)CC[C@]4(C)[C@H]3CC[C@]12C)C(C)C [SA46, (3S,8S,9S,10R,13R,14S,17R)-17-((2R,5R)-5-Ethyl-6-methylheptan-2-yl)-10,13-dimethyl-2,3,4,7,8,9,10,11,12,13,14,15,16,17-tetradecahydro-1H-cyclopenta[a]phenanthren-3-yl (3-(dimethylamino)propyl)carbamate]	10.2 ± 0.2	4.7 ± 0.2
CC[C@H](CC[C@@H](C)[C@H]1CC[C@H]2[C@@H]3CC=C4C[C@@H](OC(=O)NCC(C)(C)N)CC[C@]4(C)[C@H]3CC[C@]12C)C(C)C.Cl [SA55, (3S,8S,9S,10R,13R,14S,17R)-17-((2R,5R)-5-Ethyl-6-methylheptan-2-yl)-10,13-dimethyl-2,3,4,7,8,9,10,11,12,13,14,15,16,17-tetradecahydro-1H-cyclopenta[a]phenanthren-3-yl (2-amino-2-methylpropyl)carbamate Hydrochloride]	12.1 ± 0.7	4.9 ± 0.2
CC[C@H](CC[C@@H](C)[C@H]1CC[C@H]2[C@@H]3CC=C4C[C@@H](OC(=O)NCCCCN(C)C)CC[C@]4(C)[C@H]3CC[C@]12C)C(C)C [SA47, (3S,8S,9S,10R,13R,14S,17R)-17-((2R,5R)-5-Ethyl-6-methylheptan-2-yl)-10,13-dimethyl-2,3,4,7,8,9,10,11,12,13,14,15,16,17-tetradecahydro-1H-cyclopenta[a]phenanthren-3-yl (4-(dimethylamino)butyl)carbamate]	10.9 ± 0.4	4.6 ± 0.4
CC[C@H](CC[C@@H](C)[C@H]1CC[C@H]2[C@@H]3CC=C4C[C@@H](OC(=O)NCCOCCN(C)C)CC[C@]4(C)[C@H]3CC[C@]12C)C(C)C [SA49, (3S,8S,9S,10R,13R,14S,17R)-17-((2R,5R)-5-Ethyl-6-methylheptan-2-yl)-10,13-dimethyl-2,3,4,7,8,9,10,11,12,13,14,15,16,17-tetradecahydro-1H-cyclopenta[a]phenanthren-3-yl (2-(2-(dimethylamino)ethoxy)ethyl)carbamate]	1 ± 0.0	1.1 ± 0.0
CC[C@H](CC[C@@H](C)[C@H]1CC[C@H]2[C@@H]3CC=C4C[C@@H](OC(=O)NCC(C)(C)N(C)C)CC[C@]4(C)[C@H]3CC[C@]12C)C(C)C [SA53, (3S,8S,9S,10R,13R,14S,17R)-17-((2R,5R)-5-Ethyl-6-methylheptan-2-yl)-10,13-dimethyl-2,3,4,7,8,9,10,11,12,13,14,15,16,17-tetradecahydro-1H-cyclopenta[a]phenanthren-3-yl (2-(dimethylamino)-2-methylpropyl)carbamate]	13.0 ± 1.2	4.4 ± 0.8
CC[C@H](CC[C@@H](C)[C@H]1CC[C@H]2[C@@H]3CC=C4C[C@@H](OC(=O)NCC5(N(C)C)CC5)CC[C@]4(C)[C@H]3CC[C@]12C)C(C)C [SA54, (3S,8S,9S,10R,13R,14S,17R)-17-((2R,5R)-5-Ethyl-6-methylheptan-2-yl)-10,13-dimethyl-2,3,4,7,8,9,10,11,12,13,14,15,16,17-tetradecahydro-1H-cyclopenta[a]phenanthren-3-yl ((1-(dimethylamino)cyclopropyl)methyl)carbamate]	1.3 ± 0.1	1.5 ± 0.1
